Data on 3 compounds can be found in patent US20090240070A1, “WHITENING DERMATOLOGICAL PREPARATIONS” (SHOWA DENKO K.K., priority 2006, published 2009).

In series [1] the test system is culture skin model (MEL-300) containing melanin cells. The settings on record: for Amount of melanin synthesized (% relative to the control): 0.5% by mass test article solution, 0.1 ml, 11 days of incubation, control = 100%; for inhibition of melanin synthesis compared with tranexamic acid (in words): conclusion from Table 4.
Experimental: The above test articles, each 0.5% by mass, were dissolved separately in sterilized water containing 10% bovine serum albumin and 1% DMSO to give test article solutions.
The skin model was cultured for 11 days using the supplied culture medium LLMM. Each article was tested two times. The culture medium was changed every other day during the incubation.
After 11 days of incubation, the skin model was washed and was measured for the cell survival rate by colorimetry (570 nm) with the Alamar Blue reagent (manufactured by Molecular Probe). Thereafter, the melanin synthesized in the skin model was determined in the following manner.
The skin model was soaked overnight in a liquid which consisted of 0.2 ml of a 10 mM tris buffer solution (pH 6.8) containing 1% SDS and 0.05 mM EDTA, and 0.02 ml of 5 mg/ml Proteinase K. On the next day, 0.02 ml of 5 mg/ml Proteinase K was added, followed by heating at 45° C. for 4 hours. Consequently, the skin model was dissolved. The lysate was made alkaline with 0.025 ml of a 500 mM sodium carbonate solution, and was combined with 5 μl of 30% hydrogen peroxide, followed by heating at 80° C. for 30 minutes to perform reaction. To prepare a standard sample solution, 0.24 ml of a melanin solution of known concentration was combined with 0.025 ml of a 500 mM sodium carbonate solution and 5 μl of 30% hydrogen peroxide, followed by heating at 80° C. for 30 minutes to perform reaction.
The standard sample solution and the lysate obtained were each cooled and extracted with 0.1 ml of chloroform/methanol (2/1). The aqueous phase was measured for the absorbance at 405 nm, and the melanin synthesized was determined using a calibration curve obtained with the standard sample.
The conditions of series [2]: 0.5% by mass solution, 0.1 ml on minipig skin, 24 hours, 37° C.; HPLC.
Experimental: The above test articles, each 0.5% by mass, were dissolved separately in Dulbecco's PBS (−) containing 10% bovine serum albumin to give test article solutions.
2-cm square skin pieces of minipig (Charles River Laboratories Inc. (United States of America)) were placed in the Netwell (manufactured by Corning Incorporated), and assay rings (Teflon® rings with a center opening) on which a silicon sealant had been applied were pressed and fixed to the epidermis of the skin. Subsequently, 2 ml of a skin culture medium (TOYOBO CO., LTD.) was added to a multiwell plate, and the Netwell was set such that skin lower portions would be soaked. Each of the test article solutions, 0.1 ml, was slowly poured into the opening of assay ring. When no leakage was confirmed, the Netwell was sealed with multiplate seals and were allowed to stand in an incubator at 37° C. and 5% carbon dioxide. […]
The test articles in the tissue extracts were determined by HPLC.
The protein in the tissue extracts was determined by the Lowry method.
400 μl of the reagent 4 was added to a sample tube containing 20 μl of the tissue extract or the standard sample solution, followed by mixing. […] The absorbance at 750 nm was measured with a spectrophotometer, and the protein concentration in the tissue extract was determined using a calibration curve obtained with the standard sample.

Regarding `Cc1c(C)c2c(c(C)c1OC(=O)[C@H]1CC[C@H](CN)CC1)CCC(C)(CCCC(C)CCCC(C)CCCC(C)C)O2.Cl` (mixture of isomers) [b, dl-α-Tocopherol tranexamate hydrochloride], in series [1], the “Amount of melanin synthesized (% relative to the control)” value is 60% and the “inhibition of melanin synthesis compared with tranexamic acid (in words)” value is “inhibit the melanin synthesis more effectively than tranexamic acid”.
For `Cc1c(OC(=O)[C@H]2CC[C@H](CN)CC2)cc2c(c1C)OC(C)(CCCC(C)CCCC(C)CCCC(C)C)CC2.Cl` (mixture of isomers) [c, dl-γ-Tocopherol tranexamate hydrochloride] the same measures were 44% and “inhibit the melanin synthesis more effectively than tranexamic acid”.
For `NC[C@H]1CC[C@H](C(=O)O)CC1` [a, Tranexamic acid, reference compound], in series [2], the “Determined value, amount of test article in skin tissue extract” value worked out at 0.034 μmol/mg skin protein. The “Amount of melanin synthesized (% relative to the control)” value in series [1] came to 99%.
